± gives the uncertainty stated by the source.
Assay: xn = mol fraction of the nth substance listed

CCNCC + CCCCCCCCCO
viscosity (293.15 K, 100 kPa, x1 = 0.0799): 10.36 ± 0.83 mPa·s
viscosity (293.15 K, 100 kPa, x1 = 0.1586): 9.36 ± 0.75 mPa·s
viscosity (293.15 K, 100 kPa, x1 = 0.2389): 8.35 ± 0.67 mPa·s
viscosity (293.15 K, 100 kPa, x1 = 0.3485): 7.05 ± 0.57 mPa·s
viscosity (293.15 K, 100 kPa, x1 = 0.4391): 5.99 ± 0.48 mPa·s
viscosity (293.15 K, 100 kPa, x1 = 0.5594): 4.66 ± 0.37 mPa·s
viscosity (293.15 K, 100 kPa, x1 = 0.649): 3.71 ± 0.3 mPa·s
viscosity (293.15 K, 100 kPa, x1 = 0.7395): 2.79 ± 0.22 mPa·s
viscosity (293.15 K, 100 kPa, x1 = 0.8499): 1.71 ± 0.14 mPa·s
viscosity (293.15 K, 100 kPa, x1 = 0.9397): 0.87 ± 0.07 mPa·s
viscosity (303.15 K, 100 kPa, x1 = 0.0799): 7.11 ± 0.57 mPa·s
viscosity (303.15 K, 100 kPa, x1 = 0.1586): 6.4 ± 0.51 mPa·s
viscosity (303.15 K, 100 kPa, x1 = 0.2389): 5.7 ± 0.46 mPa·s
viscosity (303.15 K, 100 kPa, x1 = 0.3485): 4.78 ± 0.38 mPa·s
viscosity (303.15 K, 100 kPa, x1 = 0.4391): 4.05 ± 0.33 mPa·s
viscosity (303.15 K, 100 kPa, x1 = 0.5594): 3.14 ± 0.25 mPa·s
viscosity (303.15 K, 100 kPa, x1 = 0.649): 2.5 ± 0.2 mPa·s
viscosity (303.15 K, 100 kPa, x1 = 0.7395): 1.88 ± 0.15 mPa·s
viscosity (303.15 K, 100 kPa, x1 = 0.8499): 1.17 ± 0.1 mPa·s
viscosity (303.15 K, 100 kPa, x1 = 0.9397): 0.63 ± 0.05 mPa·s
viscosity (313.15 K, 100 kPa, x1 = 0.0799): 5.05 ± 0.41 mPa·s
viscosity (313.15 K, 100 kPa, x1 = 0.1586): 4.53 ± 0.36 mPa·s
viscosity (313.15 K, 100 kPa, x1 = 0.2389): 4.03 ± 0.32 mPa·s
viscosity (313.15 K, 100 kPa, x1 = 0.3485): 3.37 ± 0.27 mPa·s
viscosity (313.15 K, 100 kPa, x1 = 0.4391): 2.85 ± 0.23 mPa·s
viscosity (313.15 K, 100 kPa, x1 = 0.5594): 2.21 ± 0.18 mPa·s
viscosity (313.15 K, 100 kPa, x1 = 0.649): 1.77 ± 0.14 mPa·s
viscosity (313.15 K, 100 kPa, x1 = 0.7395): 1.34 ± 0.11 mPa·s
viscosity (313.15 K, 100 kPa, x1 = 0.8499): 0.85 ± 0.07 mPa·s
viscosity (313.15 K, 100 kPa, x1 = 0.9397): 0.49 ± 0.04 mPa·s
viscosity (323.15 K, 100 kPa, x1 = 0.0799): 3.71 ± 0.3 mPa·s
viscosity (323.15 K, 100 kPa, x1 = 0.1586): 3.34 ± 0.27 mPa·s
viscosity (323.15 K, 100 kPa, x1 = 0.2389): 2.97 ± 0.24 mPa·s
viscosity (323.15 K, 100 kPa, x1 = 0.3485): 2.49 ± 0.2 mPa·s
viscosity (323.15 K, 100 kPa, x1 = 0.4391): 2.12 ± 0.17 mPa·s
viscosity (323.15 K, 100 kPa, x1 = 0.5594): 1.65 ± 0.13 mPa·s
viscosity (323.15 K, 100 kPa, x1 = 0.649): 1.33 ± 0.11 mPa·s
viscosity (323.15 K, 100 kPa, x1 = 0.7395): 1.02 ± 0.08 mPa·s
viscosity (323.15 K, 100 kPa, x1 = 0.8499): 0.67 ± 0.05 mPa·s
viscosity (323.15 K, 100 kPa, x1 = 0.9397): 0.4 ± 0.03 mPa·s

COCCOCCOCCOC + CCCCCCCCCO
viscosity (293.15 K, 101 kPa, x1 = 0.06286): 8.733 ± 0.12 mPa·s
viscosity (293.15 K, 101 kPa, x1 = 0.0721): 8.424 ± 0.11 mPa·s
viscosity (293.15 K, 101 kPa, x1 = 0.157): 6.409 ± 0.084 mPa·s
viscosity (293.15 K, 101 kPa, x1 = 0.1967): 5.797 ± 0.075 mPa·s
viscosity (293.15 K, 101 kPa, x1 = 0.3999): 3.779 ± 0.047 mPa·s
viscosity (293.15 K, 101 kPa, x1 = 0.4952): 3.246 ± 0.039 mPa·s
viscosity (293.15 K, 101 kPa, x1 = 0.5949): 2.852 ± 0.034 mPa·s
viscosity (293.15 K, 101 kPa, x1 = 0.6909): 2.575 ± 0.03 mPa·s
viscosity (293.15 K, 101 kPa, x1 = 0.7539): 2.434 ± 0.028 mPa·s
viscosity (293.15 K, 101 kPa, x1 = 0.8907): 2.226 ± 0.025 mPa·s
viscosity (293.15 K, 101 kPa, x1 = 0.9525): 2.165 ± 0.024 mPa·s
viscosity (303.15 K, 101 kPa, x1 = 0.06693): 6.211 ± 0.084 mPa·s
viscosity (303.15 K, 101 kPa, x1 = 0.08755): 5.811 ± 0.078 mPa·s
viscosity (303.15 K, 101 kPa, x1 = 0.1949): 4.339 ± 0.057 mPa·s
viscosity (303.15 K, 101 kPa, x1 = 0.2889): 3.545 ± 0.045 mPa·s
viscosity (303.15 K, 101 kPa, x1 = 0.3982): 2.936 ± 0.037 mPa·s
viscosity (303.15 K, 101 kPa, x1 = 0.4875): 2.576 ± 0.031 mPa·s
viscosity (303.15 K, 101 kPa, x1 = 0.5926): 2.286 ± 0.027 mPa·s
viscosity (303.15 K, 101 kPa, x1 = 0.698): 2.082 ± 0.024 mPa·s
viscosity (303.15 K, 101 kPa, x1 = 0.7829): 1.952 ± 0.022 mPa·s
viscosity (303.15 K, 101 kPa, x1 = 0.9059): 1.83 ± 0.02 mPa·s
viscosity (303.15 K, 101 kPa, x1 = 0.9404): 1.795 ± 0.02 mPa·s
viscosity (313.15 K, 101 kPa, x1 = 0.05997): 4.72 ± 0.064 mPa·s
viscosity (313.15 K, 101 kPa, x1 = 0.1): 4.218 ± 0.057 mPa·s
viscosity (313.15 K, 101 kPa, x1 = 0.1977): 3.34 ± 0.044 mPa·s
viscosity (313.15 K, 101 kPa, x1 = 0.2965): 2.774 ± 0.035 mPa·s
viscosity (313.15 K, 101 kPa, x1 = 0.3974): 2.365 ± 0.029 mPa·s
viscosity (313.15 K, 101 kPa, x1 = 0.4862): 2.111 ± 0.026 mPa·s
viscosity (313.15 K, 101 kPa, x1 = 0.5834): 1.9 ± 0.023 mPa·s
viscosity (313.15 K, 101 kPa, x1 = 0.6643): 1.767 ± 0.021 mPa·s
viscosity (313.15 K, 101 kPa, x1 = 0.802): 1.635 ± 0.019 mPa·s
viscosity (313.15 K, 101 kPa, x1 = 0.915): 1.521 ± 0.017 mPa·s
viscosity (313.15 K, 101 kPa, x1 = 0.9497): 1.503 ± 0.017 mPa·s

Nc1ccccc1 + CCCCCCCCCO
viscosity (293.15 K, 100 kPa, x1 = 0.0851): 9.99 ± 0.8 mPa·s
viscosity (293.15 K, 100 kPa, x1 = 0.1597): 8.96 ± 0.72 mPa·s
viscosity (293.15 K, 100 kPa, x1 = 0.2339): 8.14 ± 0.65 mPa·s
viscosity (293.15 K, 100 kPa, x1 = 0.3537): 6.97 ± 0.56 mPa·s
viscosity (293.15 K, 100 kPa, x1 = 0.4468): 6.19 ± 0.5 mPa·s
viscosity (293.15 K, 100 kPa, x1 = 0.5616): 5.33 ± 0.43 mPa·s
viscosity (293.15 K, 100 kPa, x1 = 0.6482): 4.9 ± 0.39 mPa·s
viscosity (293.15 K, 100 kPa, x1 = 0.7383): 4.53 ± 0.36 mPa·s
viscosity (293.15 K, 100 kPa, x1 = 0.8486): 4.24 ± 0.34 mPa·s
viscosity (293.15 K, 100 kPa, x1 = 0.9448): 4.2 ± 0.34 mPa·s
viscosity (303.15 K, 100 kPa, x1 = 0.0851): 6.9 ± 0.55 mPa·s
viscosity (303.15 K, 100 kPa, x1 = 0.1597): 6.21 ± 0.5 mPa·s
viscosity (303.15 K, 100 kPa, x1 = 0.2339): 5.58 ± 0.45 mPa·s
viscosity (303.15 K, 100 kPa, x1 = 0.3537): 4.87 ± 0.39 mPa·s
viscosity (303.15 K, 100 kPa, x1 = 0.4468): 4.36 ± 0.35 mPa·s
viscosity (303.15 K, 100 kPa, x1 = 0.5616): 3.79 ± 0.3 mPa·s
viscosity (303.15 K, 100 kPa, x1 = 0.6482): 3.46 ± 0.28 mPa·s
viscosity (303.15 K, 100 kPa, x1 = 0.7383): 3.24 ± 0.26 mPa·s
viscosity (303.15 K, 100 kPa, x1 = 0.8486): 3.06 ± 0.25 mPa·s
viscosity (303.15 K, 100 kPa, x1 = 0.9448): 3.04 ± 0.24 mPa·s
viscosity (313.15 K, 100 kPa, x1 = 0.0851): 4.94 ± 0.4 mPa·s
viscosity (313.15 K, 100 kPa, x1 = 0.1597): 4.47 ± 0.36 mPa·s
viscosity (313.15 K, 100 kPa, x1 = 0.2339): 4.08 ± 0.33 mPa·s
viscosity (313.15 K, 100 kPa, x1 = 0.3537): 3.58 ± 0.29 mPa·s
viscosity (313.15 K, 100 kPa, x1 = 0.4468): 3.25 ± 0.26 mPa·s
viscosity (313.15 K, 100 kPa, x1 = 0.5616): 2.85 ± 0.23 mPa·s
viscosity (313.15 K, 100 kPa, x1 = 0.6482): 2.64 ± 0.21 mPa·s
viscosity (313.15 K, 100 kPa, x1 = 0.7383): 2.48 ± 0.2 mPa·s
viscosity (313.15 K, 100 kPa, x1 = 0.8486): 2.38 ± 0.19 mPa·s
viscosity (313.15 K, 100 kPa, x1 = 0.9448): 2.38 ± 0.19 mPa·s
viscosity (323.15 K, 100 kPa, x1 = 0.0851): 3.67 ± 0.29 mPa·s
viscosity (323.15 K, 100 kPa, x1 = 0.1597): 3.35 ± 0.27 mPa·s
viscosity (323.15 K, 100 kPa, x1 = 0.2339): 3.06 ± 0.25 mPa·s
viscosity (323.15 K, 100 kPa, x1 = 0.3537): 2.71 ± 0.22 mPa·s
viscosity (323.15 K, 100 kPa, x1 = 0.4468): 2.47 ± 0.2 mPa·s
viscosity (323.15 K, 100 kPa, x1 = 0.5616): 2.19 ± 0.18 mPa·s
viscosity (323.15 K, 100 kPa, x1 = 0.6482): 2.05 ± 0.16 mPa·s
viscosity (323.15 K, 100 kPa, x1 = 0.7383): 1.94 ± 0.16 mPa·s
viscosity (323.15 K, 100 kPa, x1 = 0.8486): 1.87 ± 0.15 mPa·s
viscosity (323.15 K, 100 kPa, x1 = 0.9448): 1.88 ± 0.15 mPa·s

Reference: the CheMixHub viscosity set
